The target of assay [1] is T1, p53 Y220C mutant protein (amino acid residues 94-293) (Homo sapiens, UniProt P04637, Y220C).
T1 construct: p53 Y220C mutant protein (amino acid residues 94-293)
The experiment in a line: Thermal Shift Assay (TSA), dTM. Type of assay: binding. Particulars: for ΔTm at 100 µM: 100 uM compound, read-out: TSA P53 Y220C dTM (100 uM); for ΔTm at 10 µM: 10 uM compound. As for the experimental part:
Thermal Shift Assay (TSA) Protocol
5 μM recombinant p53 Y220C mutant protein (amino acid residues 94-293) was incubated with 10 μM or 100 μM compound for 3 hours at 20 °C in buffer containing 20 mM HEPES, pH7.4, 100 mM NaCl, 0.01% Pluronic F-127, and 1% DMSO in the presence of 400-fold diluted Sypro Orange (ThermoFisher Scientific catalog number 4461146), on a 384-well PCR plate (Applied Biosystems catalog number 4483285). The volume was 5 μL/well. The sealed plate was then loaded onto a QuantStudio 7 Flex instrument for melting temperature (TM) measurement. The temperature was increased from 30 °C to […], at a rate of 0.03 °C/second. Data were fit into a Boltzmann two-state model to determine the TM.

Assay [2] has as its target T1, p53 Y220C mutant protein (amino acid residues 94-293). Nature of the assay: Surface Plasmon Resonance (SPR) assay, Kd_kinetic. Type of assay: binding. The conditions noted are these: SPR, p53 Y220C, read-out: SPR P53 Y220C KD kinetic. The procedure, abridged: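 Kd values come from fitting sensorgrams to a 1:1 binding model. Sensorgrams were recorded on a Biacore 8K at 16 or 20 °C in pH 7.5 Tris buffer with 100 mM NaCl, 1 mM DTT, detergents and 1% DMSO.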

A further assay addresses p53 Y220C (Homo sapiens, UniProt P04637, Y220C). Nature of the assay: Luciferase Reporter Assay (Luc), p53 response element, NClH1299 cells with inducible p53 Y220C. Type of assay: cell-based. Particulars: 6 hour; for AC50: read-out: Luc P53 Y220C AC50. The procedure, abridged:
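Cells were seeded at 5,000 per well and induced with 0.5 ug/mL doxycycline for 24 hours, then exposed to compound for 6 hours. One-Glo reagent was added, plates shaken 5 minutes at room temperature, and luminescence read immediately.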
Background: In a reporter assay the amount or activity of a reporter protein is the signal.

Another assay relates to H1299 p53 Y220C. Nature of the assay: Cell Proliferation Assay (CellTiter-Glo, CTG), H1299 p53 Y220C (NClH1299-inducible p53 Y220C). Type of assay: cell-based. Particulars: Homo sapiens, NCI-H1299, 120 h, 5 days. The method in brief:
(§1)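 Tet-One inducible p53 Y220C or R273H constructs were stably introduced into NCI-H1299 by lentiviral transduction; NUGC3 was used as is. Cells (250-500 per well) were exposed to compound for 5 days, then CellTiter-Glo was added for 10 min at room temperature and IC50 was calculated from luminescence.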
(In general: Cellular ATP, detected with luciferase, serves as a proxy for viable cell number.)

A further assay relates to H1299 p53 R273H. The experiment in a line: Cell Proliferation Assay (CellTiter-Glo, CTG), H1299 p53 R273H (NClH1299-inducible p53 R273H). Particulars: Homo sapiens, NCI-H1299, 120 h, NClH1299-inducible p53 R273H cells; 5 days. Type of assay: cell-based. The method in brief: as §1
For a further assay, the system named is NUGC3 p53 Y220C. Nature of the assay: Cell Proliferation Assay (CellTiter-Glo, CTG), NUGC3 p53 Y220C. Type of assay: cell-based. Particulars: Homo sapiens, NUGC-3, 120 h, NUGC3 cells; 5 days. The method in brief:
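NClH1299 lines stably transduced with Tet-inducible p53 Y220C or R273H, plus NUGC3, were treated with compound for 5 days at 250-500 cells/well. IC50 derived from CellTiter-Glo luminescent signal after 10 min room-temperature incubation.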

[3] abbreviates: AC50, NClH1299 cells with inducible p53 Y220C.
Setting [4] is: Emax, NClH1299 cells with inducible p53 Y220C, 10 uM tool compound as positive control.
Where [5] appears, read: NClH1299-inducible p53 Y220C cells.

Where two headings read alike, the source gives them in different places.

For `C=Cc1c(C#CC)nc2c(NC3CCN(C)CC3)cccn12` [Example 21, N-[3-ethenyl-2-(prop-1-yn-1-yl)imidazo[1,2-a]pyridin-8-yl]-1-methylpiperidin-4-amine], the ΔTm at 100 µM in assay [1] (thermal shift) is 1 to 5 °C.

`COc1cc(S(C)(=O)=O)ccc1NCC#Cc1nc2c(NC3CCN(C)CC3)cc(NC(=O)OC(C)(C)C)cn2c1CC(F)(F)F` [Example 31, tert-butyl N-(2-{3-[(4-methanesulfonyl-2-methoxyphenyl)amino]prop-1-yn-1-yl}-8-[(1-methylpiperidin-4-yl)amino]-3-(2,2,2-trifluoroethyl)imidazo[1,2-a]pyridin-6-yl) carbamate]: in assay [1] (thermal shift), the ΔTm at 100 µM was in the range of 1 to 5 °C.

For orientation: Kd means the equilibrium constant for the complex coming apart. In general, Emax refers to the greatest response seen or fitted, relative to the assay's reference. In general, AC50 refers to the midpoint of the concentration-response curve, whichever way the signal moves. As a reminder, the IC50 is the concentration that gives 50% inhibition. High values mean weaker potency in that assay, low ones greater potency in that assay. For `CNC(=O)c1ccc(NCC#Cc2nc3c(N[C@@H]4CCN(CC(C)(C)O)C[C@@H]4F)cccn3c2SC(F)(F)F)c(OC)c1` [Example 164], the ΔTm at 10 µM in assay [1] (thermal shift, read-out: TSA P53 Y220C dTM (10 uM)) was at least 10 °C. The Kd in assay [2] (kinetic KD) is below 10 nM. On p53 Y220C (luciferase reporter, NClH1299 inducible p53 Y220C, 10 uM tool compound as positive control), this compound displayed an Emax of 80 to 90%. Also, the AC50 at p53 Y220C (luciferase reporter, NClH1299 inducible p53 Y220C) was below 750 nM. Further, the IC50 with H1299 p53 Y220C (CellTiter-Glo, H1299 p53 Y220C) was below 750 nM.

As for `CNC(=O)c1cnc(OC)c(NCC#Cc2nc3c(N[C@@H]4C[C@H]5CC[C@@H]([C@@H]4F)N5C)cccn3c2SC(F)(F)F)c1` [Example 265], the ΔTm at 10 µM in assay [1] (p53 Y220C, read-out: TSA P53 Y220C dTM) is at least 10 °C. Moreover, the Kd in assay [2] was below 10 nM. In addition, the concentration at half-maximal activity (AC50) on p53 Y220C (AC50, luciferase reporter, NClH1299 inducible p53 Y220C) was below 750 nM. Also, at p53 Y220C (Emax, luciferase reporter, NClH1299 inducible p53 Y220C), the Emax is above 90%. The IC50 in the assay on H1299 p53 Y220C (NClH1299-inducible p53 Y220C cells, CellTiter-Glo) was below 750 nM.

With `[2H]C([2H])([2H])N1CC[C@@H](Nc2cccn3c(SC(F)(F)F)c(C#CCNc4ccc(C(=O)NC)cc4OC)nc23)[C@@H](F)C1` [Example 476, 4-((3-(8-(((3S,4R)-3-fluoro-1-(methyl-d3)piperidin-4-yl)amino)-3-((trifluoromethyl)thio)imidazo[1,2-a]pyridin-2-yl)prop-2-yn-1-yl)amino)-3-methoxy-N-methylbenzamide], in assay [1] (read-out: TSA P53 Y220C dTM), the ΔTm at 10 µM is at least 10 °C. The Kd in assay [2] is below 10 nM. Also, the half-maximal activity concentration (AC50) at p53 Y220C (setting [3]) was below 750 nM. This compound had an Emax at p53 Y220C (setting [4]) above 90%. Besides, the IC50 with H1299 p53 Y220C (setting [5]) was below 750 nM.

With `CNC(=O)c1ccc(OC2COC2)c(NCC#Cc2cc3c(N[C@@H]4CCN(C)C[C@@H]4F)cccn3c2SC(F)(F)F)c1` [Example 499], the IC50 is 5000 to 8000 nM in the assay on H1299 p53 R273H, below 750 nM in the assay on NUGC3 p53 Y220C and below 750 nM in the assay with H1299 p53 Y220C (setting [5]). Besides, the Kd in assay [2] was below 10 nM. Moreover, the AC50 on p53 Y220C (setting [3]) was below 750 nM. This compound showed an Emax on p53 Y220C (setting [4]) above 90%.

Consider `CNC(=O)c1ccc(NCC#Cc2cc3c(N[C@@H]4CCN(C)C[C@@H]4F)cccn3c2SC(F)(F)F)c(F)c1` [Example 502, 3-fluoro-4-{[3-(8-{[(3S,4R)-3-fluoro-1-methylpiperidin-4-yl]amino}-3-[(trifluoromethyl)sulfanyl]indolizin-2-yl)prop-2-yn-1-yl]amino}-N-methylbenzamide], for which the IC50 in the assay on H1299 p53 R273H is at least 10000 nM; with NUGC3 p53 Y220C it was below 750 nM; with H1299 p53 Y220C (setting [5]), below 750 nM. Besides, the Kd in assay [2] is below 10 nM. The AC50 at p53 Y220C (setting [3]) is below 750 nM. The compound also had an Emax on p53 Y220C (setting [4]) above 90%.

As to `CNC(=O)c1ccc(NCC#Cc2cc3c(N[C@@H]4CCN(C5COC5)C[C@@H]4F)cccn3c2SC(F)(F)F)c(OC)c1` [Example 504, 4-{[3-(8-{[(3S,4R)-3-fluoro-1-(oxetan-3-yl)piperidin-4-yl]amino}-3-[(trifluoromethyl)sulfanyl]indolizin-2-yl)prop-2-yn-1-yl]amino}-3-methoxy-N-methylbenzamide], the IC50 in the assay with H1299 p53 R273H is below 5000 nM; in the assay on NUGC3 p53 Y220C, below 750 nM; in the assay on H1299 p53 Y220C (setting [5]), below 750 nM. For the same compound, in assay [2], the Kd is below 10 nM. On p53 Y220C (setting [3]), the AC50 was below 750 nM. Besides, on p53 Y220C (setting [4]), the Emax is above 90%.

Turning to `CNC(=O)c1ccc(C(=O)NC)c(NCC#Cc2cc3c(N[C@@H]4CCN(C)C[C@@H]4F)cccn3c2SC(F)(F)F)c1` [Example 508], the IC50 in the assay with H1299 p53 R273H is 8000 to 10000 nM; in the assay on NUGC3 p53 Y220C it was below 750 nM; with H1299 p53 Y220C (setting [5]), below 750 nM. Also, the dissociation constant (Kd) in assay [2] was below 10 nM. In addition, the AC50 at p53 Y220C (setting [3]) was below 750 nM. Further, the Emax at p53 Y220C (setting [4]) is above 90%.

(Values after patent US20260374766A1, “METHODS FOR TREATING CANCER” (Antares Therapeutics, Inc., priority 2022, published 2026).)
